Source: patent publication US12351572B2, “Substituted 1,2,4-triazoles as TYK2 inhibitors” (Alumis Inc., priority 2018, dated 2025)

Columns and labels:
Type in all cases: in vivo
[1] = Pharmacokinetics in C57BL/6 mice; settings: male, mouse, plasma, iv, C0, I.V. (2 mg/kg), read-out: C0 or Cmax
Protocol: (§1) The pharmacokinetics of test compounds were evaluated in male C57BL/6 mice, Sprague Dawley rats, Beagle dogs, and cynomolgus monkeys when administered via oral gavage and IV injection. The animals were fasted overnight before administration. Plasma samples were collected predose and at 0.5, 1, 3, 6, 9, 12, and 24 hours postdose. The samples were analyzed by LC/MS/MS and the concentration of test compound at each timepoint was determined by linear regression. Pharmacokinetic parameters were calculated from the plasma concentrations using Pheonix WinNonlin.

[2] = Pharmacokinetics in Sprague Dawley rats; settings: rat, plasma, iv, C0, I.V. (1 mg/kg), read-out: C0 or Cmax
Protocol: as §1

[3] = Pharmacokinetics in Beagle dogs; settings: dog, plasma, iv, C0, I.V. (1 mg/kg), read-out: C0 or Cmax
Protocol: as §1

[4] = Pharmacokinetics in cynomolgus monkeys; settings: cynomolgus monkey, plasma, iv, C0, I.V. (1 mg/kg), read-out: C0 or Cmax
Protocol: as §1

[2H]C([2H])([2H])NC(=O)c1nnc(NC(=O)C2CC2)cc1Nc1cccc(-c2ncn(C)n2)c1OC [control, BMS-986165]
Cmax [1]: 3220 ng/mL | Cmax [2]: 1740 ± 276 ng/mL | Cmax [3]: 559 ± 34 ng/mL | Cmax [4]: 1420 ± 264 ng/mL
